Tests used:
Type in all cases: binding
Ptpn11_N SH2 domain = target: T1, Ptpn11_N SH2 domain (Homo sapiens, UniProt Q06124); experiment: SPOT peptide array; conditions: GST-SH2 0.25 μM; for Array positive: membrane-bound peptide, 1 mM DTT, LiCor read-out; for Peptide array intensity (X mean): spot intensity as factor of array mean
T1 sequence (Q06124 6-102 limits assumed): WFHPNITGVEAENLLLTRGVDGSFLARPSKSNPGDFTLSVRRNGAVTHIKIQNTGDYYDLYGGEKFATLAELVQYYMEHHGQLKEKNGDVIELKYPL
Description: (§1) The use of addressable peptide arrays is a reproducible and semi-quantitative approach that has been extensively validated for studying protein interactions with peptide ligands. To investigate connections between SH2 domain proteins and their putative phosphorylated docking sites on cell surface receptors, we developed addressable arrays consisting of 192 phosphotyrosine peptides. This peptide set was assembled using 71 phosphotyrosine peptide motifs corresponding to all of the cytoplasmic tyrosine residues within the FGF receptors (FGFR1-4), insulin receptor (InsR) and IGF-1 receptor (IGF-1R) (Figure 1A). Activation of these receptors results in the phosphorylation of associated scaffold proteins, and so 75 phosphotyrosine peptides corresponding to a comprehensive list of tyrosine residues within insulin receptor substrates (IRS-1 and IRS-2) and fibroblast receptor substrates (FRS-2 and FRS-3) were included. In addition, 33 phosphotyrosine peptides were incorporated from the downstream signaling proteins PLC-γ1, p130Cas (BCAR1) and p62DOK1. […] These control peptides provide a reference and establish the empirical cut-off for designated binding interactions (Table 1). No discrimination was made against peptides on the basis of reported phosphorylation state in order to examine a diverse and unbiased set of motifs. The resulting set of 192 phosphotyrosine peptides and their corresponding position in the proteins of origin is noted in Additional file 1: Table S1. Addressable arrays were synthesized as membrane-bound 11-mer peptides using the SPOT synthesis technique. While the majority of SH2 domains recognize residues C-terminal to the phosphotyrosine in their cognate peptide ligands, additional contacts between SH2 domains and residues N-terminal to the phosphotyrosine are observed for the SH2 domain of Sh2d1a (SAP) and cannot be ruled out in other cases. Peptides were synthesized with six flanking residues C-terminal to the phosphotyrosine and four residues N-terminal to the phosphotyrosine.
(§2) SH2 domains were arrayed as GST fusion proteins and detected using anti-GST primary antibodies and near-infrared labeled secondary antibodies. In an effort to present a dataset with minimal false positives, we chose an empirical cutoff based on the array average across all peptide spots to classify interactions (Figure 1A). In cases where the intensity of the signal for an individual SH2-domain binding event exceeded the mean intensity of all the peptides on the membrane by three-fold were scored as “array positives” [22]. Non-binding was judged in cases where the intensity of a spot was less than the mean intensity of all spots on the membrane and these were scored as “array negatives”. Peptides with signal intensities between 1X and 3X mean were scored as “indeterminate” and ascribed as neither array positive binding interactions nor array-negative non-binders. […] This signature may be indicative of promiscuity differences between phosphopeptides or there may be a subset of peptides which interact in a nonspecific fashion with either the GST fusion tag or one of the antibodies used for detection, resulting in false positives. Consistent with our goal of reducing the errors associated with identifying false-positives, we probed three separate arrays with three separate preps of the GST fusion tag alone. Potentially non-specificly interacting peptides (so-called ‘sticky’ peptides) were identified as any that bound to GST with above mean intensity in two out of three separate trials. This approach identifies any peptides which interact with GST or either of the recognition antibodies, a known confounding factor for downstream analysis. This conservative approach allows us to score many significant peptides as ‘binders’ which may have been indeterminate before when incorporating the ‘sticky’ peptides into the array average. […]

Grb2 SH2 domain = Grb2 SH2 domain (Homo sapiens, UniProt P62993); experiment: SPOT peptide array; conditions: GST-SH2 0.25 μM, membrane-bound peptide, 1 mM DTT, LiCor read-out
Description: as §1, §2

panel of 50 SH2 domains = experiment: SPOT peptide array probed with each of 50 GST-SH2 domains; conditions: for Other SH2 domains bound (additional array-positive SH2 domains): SH2 domains with intensity >3X array mean, GST-SH2 0.25 μM, 1 mM DTT; for SH2 Domains >3X / 2X < SH2 Domains < 3X: SPOT192 peptide array; for SH2 Domains >3X: list of GST-SH2 domains with spot intensity >3X array mean (array-positive); for 2X < SH2 Domains < 3X: list of GST-SH2 domains with spot intensity between 2X and 3X array mean (indeterminate range)
Outline: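 Each GST-fused SH2 domain was overlaid on 192 membrane-synthesized pTyr peptides (11-mers, 4 N-terminal and 6 C-terminal flanking residues) and read with anti-GST and near-infrared secondary antibodies. Binding called relative to membrane mean intensity (>3× positive, <1× negative); GST-only probes defined nonspecific peptides.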

Plcγ-C SH2 domain = experiment: SPOT peptide array; conditions: GST-SH2 0.25 μM; for Array positive: membrane-bound peptide, 1 mM DTT, LiCor read-out
Description: as §1, §2

Nck1 SH2 domain = Nck1 SH2 domain (Homo sapiens, UniProt P16333); experiment: SPOT peptide array; conditions: GST-SH2 0.25 μM
Description: as §1, §2

[1] = spot intensity as factor of array mean

Sequence of Grb2 SH2 domain (P62993 60-152 limits assumed): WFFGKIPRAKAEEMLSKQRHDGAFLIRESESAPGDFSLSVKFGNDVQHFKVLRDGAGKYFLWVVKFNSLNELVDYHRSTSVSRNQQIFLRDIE

Row | Substance | Other SH2 domains bound (additional array-positive SH2 domains) (panel of 50 SH2 domains) | SH2 Domains >3X (panel of 50 SH2 domains) | 2X < SH2 Domains < 3X (panel of 50 SH2 domains) | further results
1 | DPNGpYMMMSPS [11-mer phosphotyrosine peptide, IRS-1 (Y662)] | – | – | – | Array positive (Ptpn11_N SH2 domain): No (Peptide spots with average intensity values between 1X-3X the array mean were defined as ‘indeterminate’. Those with intensities below 1X mean were defined as array negative); Peptide array intensity (X mean) (Ptpn11_N SH2 domain): 0.54 X Mean
2 | PMHNpYVNTENV [11-mer phosphotyrosine peptide, FRS2 (Y392)] | Gads, Grap | – | – | Array positive (Grb2 SH2 domain): Yes (Array-positive binding was ascribed to interactions with intensities greater than three times the array mean)
3 | RQLNpYIQVDLE [11-mer phosphotyrosine peptide, FRS2 (Y436)] | Itk, Mist, PLCγ_C, Rasa1_N, Shb, Shd, She, Syk_C | – | – | Array positive (Ptpn11_N SH2 domain): Yes (Array-positive binding was ascribed to interactions with intensities greater than three times the array mean)
4 | DDPSpYVNVQNL [11-mer phosphotyrosine control peptide, ShcA (Y426), reference compound] | Gads, Grap | – | – | Array positive (Grb2 SH2 domain): Yes (Array-positive binding was ascribed to interactions with intensities greater than three times the array mean)
5 | QVHTpYVNTTGV [11-mer phosphotyrosine peptide, FRS2 (Y196)] | Abl2, Gads, Grap, PI3K1_C | – | – | Array positive (Grb2 SH2 domain): Yes (Array-positive binding was ascribed to interactions with intensities greater than three times the array mean)
6 | SIEEpYTEMMPA [11-mer phosphotyrosine peptide, IRS-1 (Y551)] | – | – | – | Array positive (Ptpn11_N SH2 domain): No (Peptide spots with average intensity values between 1X-3X the array mean were defined as ‘indeterminate’. Those with intensities below 1X mean were defined as array negative); Peptide array intensity (X mean) (Ptpn11_N SH2 domain): 0.56 X Mean
7 | TRDIpYETDpYpYR [triply phosphorylated peptide, InsR (Y1185,89,90)] | Crk, Crkl, Fer, Grb7, PI3K1_C | – | – | Array positive (Plcγ-C SH2 domain): Yes (Array-positive binding was ascribed to interactions with intensities greater than three times the array mean)
8 | ALLNpYENLPSL [11-mer phosphotyrosine peptide, FRS2 (Y349)] | Abl1, Abl2, Gads, Grap, Grb2, Grb7, PI3K1_C, Sh2d2a, Sh3bp2 | – | – | Array positive (Grb2 SH2 domain): Yes (Array-positive binding was ascribed to interactions with intensities greater than three times the array mean)
9 | GGEFpYGYMTMD [11-mer phosphotyrosine peptide, IRS-2 (Y540)] | Dapp1, Grb7 | – | – | Array positive (Plcγ-C SH2 domain): Yes (Array-positive binding was ascribed to interactions with intensities greater than three times the array mean)
10 | ELSNpYICMGGK [11-mer phosphotyrosine peptide, IRS-1 (Y465)] | – | – | – | Array positive (Ptpn11_N SH2 domain): No (Peptide spots with average intensity values between 1X-3X the array mean were defined as ‘indeterminate’. Those with intensities below 1X mean were defined as array negative); Peptide array intensity (X mean) (Ptpn11_N SH2 domain): 0.9 X Mean
11 | APVSpYADMRTG [11-mer phosphotyrosine peptide, IRS-1 (Y1012)] | – | – | – | Array positive (Ptpn11_N SH2 domain): No (Peptide spots with average intensity values between 1X-3X the array mean were defined as ‘indeterminate’. Those with intensities below 1X mean were defined as array negative); Peptide array intensity (X mean) (Ptpn11_N SH2 domain): 0.59 X Mean
12 | PNGDpYLNVSPS [11-mer phosphotyrosine peptide, IRS-2 (Y766)] | Sh2d1b, Vav1 | – | – | Array positive (Grb2 SH2 domain): Yes (Array-positive binding was ascribed to interactions with intensities greater than three times the array mean)
13 | NKLVpYENINGL [11-mer phosphotyrosine peptide, FRS2 (Y306)] | Grap, Grb7, Sh2d2a | – | – | Array positive (Grb2 SH2 domain): Yes (Array-positive binding was ascribed to interactions with intensities greater than three times the array mean)
14 | NPGFpYVEANPM [11-mer phosphotyrosine peptide, PLCγ1 (Y783)] | PLCγ_C at 1.03X mean; Zap70_N | – | – | Array positive (Plcγ-C SH2 domain): No (Peptide spots with average intensity values between 1X-3X the array mean were defined as ‘indeterminate’. Those with intensities below 1X mean were defined as array negative); Peptide array intensity (X mean) (Plcγ-C SH2 domain; [1]): 1.03 X Mean
15 | EDLSpYGDVPPG [11-mer phosphotyrosine peptide, IRS-1 (Y151)] | 1.76X Mean Abl1, Blk, Fyn, Lck, Lyn, Sh2d1b, Shc1, Ship2, Slnk, Yes | – | – | Array positive (Nck1 SH2 domain; membrane-bound peptide, 1 mM DTT, LiCor read-out): No (Peptide spots with average intensity values between 1X-3X the array mean were defined as ‘indeterminate’. Those with intensities below 1X mean were defined as array negative); Peptide array intensity (X mean) (Nck1 SH2 domain; [1]): 1.76 X Mean
16 | NALGpYTVSSFS [G11] | – | ABL2, CRK, CRKL, GRB7, MATK, SH2D2A | ABL1 | –
17 | PGLEpYCYNPSH [E09] | – | ABL1, GRB7, ZAP70_N | – | –
18 | EHIPpYTHMNGG [B06] | – | – | PI3K1_C | –
19 | PVFFpYVQAKTG [B09] | – | BRDG1, MIST, Sh2b, SYK_C | BCAR3, RASA1_C, SHF, TENC1 | –
20 | EDDGpYDVPKPP [A03] | – | CRK, CRKL, FGR, HCK, SHIP1, SRC, YES | ABL1, BLK, FYN, LYN | –
21 | VSEEpYLDLRLT [F18] | – | BMX, RASA1_N, SHB, SHD | – | –
22 | VIVEpYASKGNL [E07] | – | – | BCAR3 | –
23 | EGSApYEEVPTS [G20] | – | BRK, FGR, LYN, NCK1, SH2D1B, SHC1, YES | BLK, FER, FYN, HCK, GRB7, LCK | –
24 | NGLNpYIDLDLV [C22] | – | BCAR3, ITK, PLCG2_C, PTPN11_N, RASA1_N, Sh2b, SHB, SHF, SHD, SHE, TENC1 | DAPP1, FGR, LCK, LYN, RASA1_C, SYK_C, YES | –
25 | PRQSpYVDTSPA [C20] | – | PI3K1_C | – | –
26 | EVSFpYYSEENK [B15] | – | DAPP1, ITK, PLCG2_C, RASA1_C, Sh2b, SHB, SHE, SYK_C, VAV1 | ABL1, BLK, MATK, RASA1_N | –
27 | CGRSpYRRVSGD [D12] | – | BCAR3 | BRDG1, ITK, MIST, PLCG2_N, SHB, SHF, SYK_C, TENC1 | –
28 | PCSVpYVPDEWE [A20] | – | BMX, DAPP1, ITK, PLCG2_N, PLCG2_C, RASA1_N, RASA1_C, SH2D1B, VAV1 | FGR, FYN, MATK, SH2D2A, SHC1 | –
29 | TFGPpYSPSGGD [F19] | – | – | ZAP70_N | –

Source: PMC3514216, “SRC Homology 2 Domain Binding Sites in Insulin, IGF-1 and FGF receptor mediated signaling networks reveal an extensive potential interactome” (Cell Communication and Signaling : CCS, 2012)
